Source: the supplement of paper PMC10307832

Legend:
Assay in all cases: relative viability (nuclei count vs DMSO), 5 days (fraction); higher = more cells survive
[1] = compound: COc1cc2ncn(-c3cc(OCc4ccccc4C(F)(F)F)c(C(N)=O)s3)c2cc1OC + CS(=O)(=O)CCNCc1ccc(-c2ccc3ncnc(Nc4ccc(OCc5cccc(F)c5)c(Cl)c4)c3c2)o1 [Lapatinib] (partner 2 µM)
Procedure, shortened: (§1)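 The day after seeding in 1536-well plates, lung cancer cell lines were treated by pin tool with a single drug, or with a fixed anchor-drug dose together with five library-drug doses (not always all listed) in √10 steps. After 5 days, a combined fix-and-stain solution (final 0.05% Triton X-100, 1% formaldehyde, 1 ug/ml Hoechst) was added. Nuclei counted on 4× images gave relative viability as treated counts over vehicle counts, reported as the median of duplicate plates.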

[2] = compound: COc1cc2ncn(-c3cc(OCc4ccccc4C(F)(F)F)c(C(N)=O)s3)c2cc1OC + C[C@@H](Oc1cc(-c2cnn(C3CCNCC3)c2)cnc1N)c1c(Cl)ccc(F)c1Cl [Crizotinib] (partner 1 µM)
Procedure, shortened: as §1

[3] = compound: COc1cc2ncn(-c3cc(OCc4ccccc4C(F)(F)F)c(C(N)=O)s3)c2cc1OC + Cc1nc(Nc2ncc(C(=O)Nc3c(C)cccc3Cl)s2)cc(N2CCN(CCO)CC2)n1 [Dasatinib] (partner 0.075 µM)
Procedure, shortened: as §1

[4] = compound: COc1cc2ncn(-c3cc(OCc4ccccc4C(F)(F)F)c(C(N)=O)s3)c2cc1OC + Nc1nc2[nH]cc(CCc3ccc(C(=O)N[C@@H](CCC(=O)O)C(=O)O)cc3)c2c(=O)[nH]1 [Pemetrexed] (partner 0.2 µM)
Procedure, shortened: as §1

| Cell Line | relative viability ([1]; first compound 0.05 µM) | relative viability ([1]; first compound 0.1581 µM) | relative viability ([1]; first compound 0.5 µM) | relative viability ([1]; first compound 1.581 µM) | relative viability ([1]; first compound 5 µM) | relative viability ([2]; first compound 0.05 µM) | relative viability ([2]; first compound 0.1581 µM) | relative viability ([2]; first compound 0.5 µM) | relative viability ([2]; first compound 1.581 µM) | relative viability ([2]; first compound 5 µM) | relative viability ([3]; first compound 0.05 µM) | relative viability ([3]; first compound 0.1581 µM) | relative viability ([3]; first compound 0.5 µM) | relative viability ([3]; first compound 1.581 µM) | relative viability ([3]; first compound 5 µM) | relative viability ([4]; first compound 0.05 µM) | relative viability ([4]; first compound 0.1581 µM) | relative viability ([4]; first compound 0.5 µM) | relative viability ([4]; first compound 1.581 µM) | relative viability ([4]; first compound 5 µM) |
| --- | --- | --- | --- | --- | --- | --- | --- | --- | --- | --- | --- | --- | --- | --- | --- | --- | --- | --- | --- | --- |
| CAL-12T | 0.647 | 0.708 | 0.379 | 0.228 | 0.156 | 0.705 | 0.377 | 0.207 | 0.126 | 0.124 | 0.415 | 0.249 | 0.0865 | 0.105 | 0.122 | 0.706 | 1.19 | 0.621 | 0.212 | 0.165 |
| COR-L23 | 0.891 | 1.01 | 0.798 | 0.143 | 0.107 | 0.667 | 0.671 | 0.3 | 0.118 | 0.12 | 0.434 | 0.364 | 0.203 | 0.102 | 0.0618 | 0.201 | 0.208 | 0.166 | 0.156 | 0.154 |
| NCI-H1755 | 1.03 | 1.09 | 0.868 | 0.33 | 0.281 | 0.829 | 0.828 | 0.644 | 0.389 | 0.334 | 0.445 | 0.402 | 0.315 | 0.222 | 0.207 | 0.43 | 0.434 | 0.426 | 0.299 | 0.286 |
| NCI-H1437 | 0.865 | 0.699 | 0.243 | 0.136 | 0.113 | 1.03 | 0.812 | 0.659 | 0.164 | 0.101 | 0.412 | 0.356 | 0.322 | 0.162 | 0.104 | 0.317 | 0.32 | 0.221 | 0.232 | 0.179 |
| NCI-H2085 | 0.824 | 0.748 | 0.527 | 0.347 | 0.322 | 0.842 | 0.848 | 0.629 | 0.517 | 0.309 | 0.23 | 0.233 | 0.221 | 0.217 | 0.209 | 0.85 | 0.831 | 0.719 | 0.33 | 0.292 |
| H3255 | 0.24 | 0.261 | 0.206 | 0.17 | 0.149 | 0.777 | 0.981 | 0.574 | 0.238 | 0.229 | 0.346 | 0.349 | 0.344 | – | 0.279 | 0.556 | 0.602 | 0.552 | 0.332 | 0.341 |
| NCI-H661 | 0.431 | 0.517 | 0.467 | 0.18 | 0.251 | 0.869 | 0.937 | 0.85 | 0.572 | 0.855 | 0.986 | 0.779 | 0.312 | 0.293 | 0.171 | 0.989 | 0.819 | 0.482 | 0.303 | 0.269 |
| LOU-NH91 | 0.768 | 0.793 | 0.676 | 0.444 | 0.499 | 0.772 | 0.779 | 0.626 | 0.483 | 0.459 | 0.6 | 0.599 | 0.459 | 0.31 | 0.387 | 0.344 | 0.357 | 0.362 | 0.291 | 0.264 |
| NCI-H1650 | 0.789 | 0.853 | 0.293 | 0.196 | 0.186 | 1.03 | 1.03 | 0.765 | 0.17 | 0.194 | 0.329 | 0.305 | 0.268 | 0.142 | 0.145 | 0.421 | 0.36 | 0.333 | 0.217 | 0.207 |
| NCI-H3122 | 1.04 | 0.58 | 0.479 | 0.224 | 0.244 | 0.245 | 0.288 | 0.23 | 0.186 | 0.173 | 0.895 | 0.562 | 0.373 | 0.125 | 0.0999 | 0.21 | 0.196 | 0.16 | 0.124 | 0.11 |
| RERF-LC-KJ | 0.939 | 0.987 | 0.839 | – | 0.689 | 0.813 | 0.887 | 0.766 | – | 0.545 | 0.846 | 0.748 | 0.336 | 0.21 | 0.182 | 0.472 | 0.487 | 0.439 | 0.299 | 0.346 |
| NCI-H1651 | 0.916 | 0.96 | 0.365 | 0.103 | 0.108 | 0.9 | 0.84 | 0.775 | 0.631 | 0.332 | 0.403 | 0.39 | 0.198 | 0.0914 | 0.0837 | 0.636 | 0.578 | 0.468 | 0.402 | 0.326 |
| NCI-H2087 | 0.995 | 1.06 | 0.582 | 0.175 | 0.121 | 0.934 | 0.793 | 0.32 | 0.18 | 0.139 | 0.8 | 0.656 | 0.583 | 0.117 | 0.075 | 0.617 | 0.684 | 0.414 | 0.11 | 0.106 |
